The source made the active and inactive calls.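 The calls were made as follows: active = IC50 at or below 10 micromolar; inactive = IC50 above 10 micromolar.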
biological target: 5-hydroxytryptamine receptor 1A (Homo sapiens) (UniProt P08908); experiment: IC50 of serotonin HTR1A blockade – cell-based, CHO, Ga15 NFAT-bla reporter, dose response (AID 755); details: CHO 5-HT1A Ga15 NFAT-BLA reporter, FRET antagonist
Sequence (P08908 whole entry, looked up): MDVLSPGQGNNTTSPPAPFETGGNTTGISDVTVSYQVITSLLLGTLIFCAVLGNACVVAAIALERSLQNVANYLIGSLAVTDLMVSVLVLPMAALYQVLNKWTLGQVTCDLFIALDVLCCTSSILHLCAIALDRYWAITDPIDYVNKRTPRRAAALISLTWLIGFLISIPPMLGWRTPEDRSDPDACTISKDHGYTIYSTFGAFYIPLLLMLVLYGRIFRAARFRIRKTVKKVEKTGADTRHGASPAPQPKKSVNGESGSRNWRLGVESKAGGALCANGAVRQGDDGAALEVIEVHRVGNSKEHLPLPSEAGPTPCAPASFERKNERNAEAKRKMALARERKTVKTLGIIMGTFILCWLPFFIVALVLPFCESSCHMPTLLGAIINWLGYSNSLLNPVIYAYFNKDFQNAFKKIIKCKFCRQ

| Structure (SMILES) | IC50 |
| --- | --- |
| CSc1ccccc1N=CC1=C(O)CC(C)(C)CC1=O | 1.88 µM |
| COc1cc2c(cc1OC)C1=C(C#N)CC/C(=N\S(=O)(=O)c3ccccc3)N1CC2 | > 40 µM (inactive) |
| CC(=O)Oc1ccc(N2C(=O)C3C(C2=O)C2(C)C=CC3(C)O2)cc1 (stereo not given) | 7.33 µM |

The remaining lines, values ahead:

| IC50 | Structure (SMILES) |
| --- | --- |
| inactive | O=C1C2C3C=CC(CO)(O3)C2C(=O)N1c1ccc(-c2ccccc2)cc1 (stereo not given) |
| > 40 µM (inactive) | COc1ccc(N2C(=O)CC(NCc3ccncc3)C2=O)cc1 (stereo not given) |

Source: PubChem BioAssay AID755 (The Scripps Research Institute Molecular Screening Center, 2007)
